Measurements from PubChem BioAssay (NCI).
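Assay format: 96-well plates, 48-hour exposure. GI50 is the concentration that inhibits growth by half. TGI: total growth inhibition.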

Tests used:
Test in all cases: growth of human tumour cells (NCI), 48 h
LOX IMVI melanoma = system: LOX IMVI melanoma
NCI-H23 lung = system: NCI-H23 lung
MCF7 breast = system: MCF7 breast
HOP-92 NSCLC = system: HOP-92 NSCLC
SF-539 CNS = system: SF-539 CNS
DU-145 prostate = system: DU-145 prostate
SNB-75 CNS = system: SNB-75 CNS
CCRF-CEM leukemia = system: CCRF-CEM leukemia
NCI-H226 lung = system: NCI-H226 lung
CAKI-1 renal = system: CAKI-1 renal
ACHN renal = system: ACHN renal

Row | SMILES | GI50 (LOX IMVI melanoma) [µM] | TGI (LOX IMVI melanoma) [µM] | GI50 (NCI-H23 lung) [µM] | TGI (NCI-H23 lung) [µM] | GI50 (MCF7 breast) [µM] | TGI (MCF7 breast) [µM] | GI50 (HOP-92 NSCLC) [µM] | TGI (HOP-92 NSCLC) [µM] | GI50 (SF-539 CNS) [µM] | TGI (DU-145 prostate) [µM] | TGI (SNB-75 CNS) [µM] | GI50 (CCRF-CEM leukemia) [µM] | TGI (CCRF-CEM leukemia) [µM] | TGI (NCI-H226 lung) [µM] | GI50 (CAKI-1 renal) [µM] | TGI (CAKI-1 renal) [µM] | GI50 (ACHN renal) [µM] | TGI (ACHN renal) [µM] | TGI (SF-539 CNS) [µM]
1 | Nc1nc(N)c2nc(CNc3ccc(C(=O)NC(CCCCNC(=O)c4ccccc4C(=O)O)C(=O)O)cc3)cnc2n1 (stereo not drawn) | 0.000869 | > 100 | 0.00915 | > 100 | 0.00496 | > 100 | > 100 | > 100 | 0.026 | > 100 | > 100 | 0.00306 | > 100 | > 100 | 0.0237 | > 100 | 0.00519 | > 100 | 
2 | CC#CC(O)(C(=O)OC1CC2CCC(C1)N2C)C1CCCC1 (stereo not drawn) |  | > 100 |  | > 100 |  | > 100 |  | > 100 |  | > 100 | > 100 |  | > 100 | > 100 |  | > 100 |  | > 100 | > 100
3 | CCC(=O)C(C(C)/C=C/CCSc1ccccc1)C(O)CCCCCC(=O)OC (stereo not drawn) |  | > 100 |  | > 100 |  | > 100 |  | > 100 |  | > 100 | > 100 |  | > 100 | > 100 |  | > 100 |  | > 100 | > 100
4 | OC(C/C=N/Nc1ccccc1)(C(F)(F)Cl)C(F)(F)Cl |  | > 10 |  | > 10 |  | > 10 |  | > 10 |  | > 10 | > 10 |  | > 10 | > 10 |  | > 10 |  | > 10 | > 10
5 | CC(=O)OCC(Br)C1(C)CCC(C(C)(C)Br)O1 (stereo not drawn) |  | > 100 |  | > 100 |  | > 100 |  | > 100 |  | > 100 | > 100 |  | > 100 | > 100 |  | > 100 |  | > 100 | > 100
6 | Cc1nc2c(=O)n3c4c(cccc4c2o1)CCC3 |  | > 100 |  | > 100 |  | > 100 |  | > 100 |  | > 100 | > 100 |  | > 100 | > 100 |  | > 100 |  | > 100 | > 100
7 | COC(=O)c1ccc(NCc2cc(O)ccc2O)cc1 |  | 26.1 |  | 32.9 |  | 27.3 |  | 29.1 |  | 24.8 | 38.9 |  | 10.8 | 24.9 |  | 37.4 |  | 24 | 13.5
8 | C/C=C/[C@H](O[Si](C)(C)C(C)(C)C)[C@@H](O)/C=C/C(=O)OCC |  | 33.3 |  | > 100 |  | 45.2 |  | 46.3 |  | > 100 | > 100 |  | 35.4 | 83.7 |  | 34.2 |  | 30.2 | 52
9 | O=C1c2ccccc2C(=O)c2oc(Br)cc21 |  | > 100 |  | 0.463 |  | 1.96 |  | 4.23 |  | 0.491 | 0.684 |  | 6.66 | 3.22 |  | 3.43 |  | 3.22 | 1.84
10 | CCCC[C@H]1CCN2C[C@@H](O)[C@@H](O)[C@H]2[C@@H]1O |  | > 100 |  | > 100 |  | > 100 |  | > 100 |  | > 100 | > 100 |  | > 100 | > 100 |  | > 100 |  | > 100 | > 100
11 | O=c1oc2ccc([N+](=O)[O-])cc2c(Nc2ccc3c(c2)S(=O)(=O)c2ccccc2O3)c1[N+](=O)[O-] |  | > 100 |  | > 100 |  | > 100 |  | > 100 |  | > 100 | > 100 |  | > 100 | 96.8 |  | > 100 |  | > 100 | > 100
12 | CC(C)C(NC(=O)C(Cc1ccccc1)NC(=O)[C@H]1CCC[C@H]1NC(=O)C(N)Cc1ccc(O)cc1)C(N)=O (stereo partly drawn) |  | > 100 |  | > 100 |  | > 100 |  | > 100 |  | > 100 | > 100 |  | > 100 | > 100 |  | > 100 |  | > 100 | > 100
13 | Cn1c2ccccc2c(=O)c2[nH]c3ccccc3c21 |  | > 100 |  | > 100 |  | > 100 |  | > 100 |  | > 100 | 99.8 |  | > 100 | > 100 |  | > 100 |  | > 100 | > 100
14 | CN(C)CC1CN=C(NC(=O)Nc2ccccc2)O1 (stereo not drawn) |  | > 100 |  | > 100 |  | > 100 |  | > 100 |  | > 100 | > 100 |  | > 100 | > 100 |  | > 100 |  | > 100 | > 100
15 | COc1cc(C2C(Cl)C(=O)N2NC(=O)c2ccc(NC(C)=O)cc2OC)ccc1O (stereo not drawn) |  | 26.4 |  | 39.8 |  | 38.1 |  | 31.3 |  | 43.5 | 80.1 |  | 14.6 | 43.7 |  | 94 |  | 50.2 | 48.1
16 | N#CC(C#N)=Cn1c(=S)[nH]c2ccccc21 |  | > 100 |  | > 100 |  | > 100 |  | > 100 |  | > 100 | > 100 |  | > 100 | > 100 |  | > 100 |  | > 100 | > 100
17 | CNCCC=C1c2ccccc2CCc2ccccc21 |  | 26.7 |  | 29.9 |  | 30.4 |  | 28.8 |  | 28.8 | 21.6 |  | 29.3 | 38 |  | 27.7 |  | 30.2 | 44.1
18 | C[C@]12CC[C@H](O)CC1=CC[C@@H]1C2CC[C@]2(C)Nc3c(cnn3-c3ccc(F)cc3)CC12 (stereo partly drawn) |  | > 100 |  | > 100 |  | > 100 |  | 63.6 |  | > 100 | 16.5 |  | > 100 | > 92.7 |  | > 100 |  | > 100 | 4.44
19 | S=C1N=C(Cl)/C(=C\c2ccccc2)N1 |  | > 100 |  | > 100 |  | > 100 |  | > 100 |  | > 100 | > 100 |  | > 31.6 | > 100 |  | > 100 |  | > 100 | > 100
20 | O=C(CSC1=NNC2(C(=O)N1)c1ccccc1-c1ccccc12)NC(=S)Nc1ccccc1 |  | > 10 |  | > 10 |  | > 10 |  | > 10 |  | > 10 | > 10 |  | > 10 | > 10 |  | > 10 |  | > 10 | > 10
21 | COc1ccc(N2C(=O)CC(c3c[nH]c4ncccc34)C2=O)cc1 (stereo not drawn) |  | > 100 |  | > 58.4 |  | > 76.9 |  | 36 |  | > 100 | > 100 |  | 16.8 | > 100 |  | 37.2 |  | 43.6 | > 65.3
